Measured values: patent US8263664B2, “pH-sensitive polymeric micelles for drug delivery” (priority 2002, dated 2012)

Legend:
[1] = test system: human breast MCF-7/DOX^R carcinoma xenografts; test: Growth inhibition of human breast carcinoma (MCF-7/DOX^R) xenografts; format: in vivo; details: 10 mg/kg DOX equivalent i.v. days 0, 3 and 6
Procedure: Tumor volume was calculated using a formula, tumor volume=0.52×length×width×height. Dimensions were measured with an electronic digital caliper. Two to three weeks after inoculation (tumor volume 150-200 mm^3) in vivo antitumor studies were performed. Saline (control), free DOX, or DOX-loaded micelles in aqueous saline solution were injected intravenously through a tail vein by 1-3 bolus injections at three day intervals. The injection volume (approximately 0.1 mL/10 g body weight) of micelle preparation was adjusted to give 10 mg DOX/kg body weight. Five to eight mice per study were used. Tumor volume and body weight were monitored with elapsed time. A mean standard error was calculated for each experimental point.
For the preparation of doxorubicin-loaded micelles, doxorubicin.HCl (DOX.HCl, Sigma Chemical Co., St. Louis, Mo.) was desalted by stirring overnight in the presence of two molar equivalents of triethylamine (Sigma Chemical Co.) in DMSO (Sigma Chemical Co.). […] The amount of entrapped DOX was determined by measuring UV absorbance at 481 nm of the drug after dissolving micelles in DMSO. […]

[2] = test system: A2780/DOX^R tumor; set-up: species or system nude mice; details: mouse, in vivo, iv
Procedure: To directly explore the extent of drug extravasation from the blood vessels and accumulation of DOX in the tumor, the time-dependent fluorescence intensity of DOX in the tumor sight was measured using a non-invasive skin fold window chamber model, which allows real-time measurements. To investigate the in situ delivery of polymeric micelles to solid tumors, a non-invasive visualization method using a “dorsal skin-fold window chamber model” was used. M. R. Dreher et al., Tumor vascular permeability, accumulation, and penetration of macromolecular drug carriers, 98 J. Nat'l Cancer Inst. 335-344 (2006). To establish the window chamber model, S. Shan et al., A novel rodent mammary window of orthotic breast cancer for intravital microscopy, 65 Microvasc. Res. 109-117 (2003), a flap of skin measuring 1 cm in diameter was dissected away from opposing surfaces of the dorsal skin flap of an anesthetized mouse, leaving a facial plane with its associated vasculature. The flaps were held vertically away from the body with a titanium saddle, which was sutured to both sides of the flap. […] DOX was incorporated into the polymeric micellar core, and DOX fluorescence imaging was captured in the skin dorsal window. […] Observation was made using intravital fluorescence microscopy (Olympus BX51WI Microscope, Leeds Precision Instruments, Inc., Minnesota) over time.

[3] = test system: MCF-7/DOX^R cells; test: MTT cytotoxicity against DOX-resistant MCF-7/DOX^R cells; details: 48 hrs incubation, pH 8.0-6.8
Procedure: DOX-resistant MCF-7 cells (MCF-7/DOX^R) were selected from MCF-7 cells (Korean Cell Line Bank (KCLB)) that were stepwise exposed at 0.001-10 mg/mL of free DOX. Here, cells were maintained in RPMI-1640 (Gibco, Uxbridge, UK) medium with 2 mM L-glutamine, 5% penicillin-streptomycin, and 10% fetal bovine serum in a humidified incubator 37° C. and 5% CO2 atmosphere.
For the cytotoxicity test of free DOX or drug-loaded polymeric micelles against sensitive MCF-7 or MCF-7/DOX^R cells, cells (5×10^4 cells/mL) growing as a monolayer, were seeded at 96-well dish in 200 mL of RPMI 1640 medium before 24 hrs. Free DOX or DOX loaded micelles in RPMI 1640 medium with pH 7.4 or 6.8 were prepared immediately before use as described above, added to medium-removed 96-well dish with different DOX concentration, and incubated for 48 hrs. Chemosensitivity was assessed using the tetrazolium salt MTT (Sigma Chemical Co.). Then, 100 mL of PBS pH 7.4 containing 20 mL of MTT (500 mg/L) solution was added to each well. The plates were incubated for an additional 4 hrs, and then 100 mL of DMSO was added to each well. The absorbance of each well was read on a microplate reader using a test wavelength of 570 nm and a reference wavelength 630 nm.

`COc1cccc2c1C(=O)c1c(O)c3c(c(O)c1C2=O)C[C@@](O)(C(=O)CO)C[C@@H]3O[C@H]1C[C@H](N)[C@H](O)[C@H](C)O1` [free DOX, doxorubicin] was tested, and the body weight change [1] was “more weight loss”, the “course of DOX fluorescence intensity in the tumor” value [2] was “declined after 20 min and became dark at 60 min” and the “time at which DOX fluorescence intensity in tumor started to appear” value [2] was at most 7 min. For the same molecule, the “cytotoxicity against MCF-7/DOX^R cells” value [3] was “little reduced”.
